Assay results published in patent US20030171347A1, “Sigma receptor antagonists having anti-cocaine properties and uses thereof” (priority 1998, published 2003).
Read-outs that look alike come from different tables or passages of the source.

Columns and labels:
σ1 receptors [1] = target: T1, σ1 receptors (Cavia porcellus, UniProt Q60492); assay: σ1 receptor competition binding; set-up: species or system guinea pig
T1 construct: Crude P2 membranes were prepared from guinea pig brain, rat brain, or rat liver; from tissue; host or cells: guinea pig brain (crude P2 membranes)
T1 sequence (Q60492 whole entry): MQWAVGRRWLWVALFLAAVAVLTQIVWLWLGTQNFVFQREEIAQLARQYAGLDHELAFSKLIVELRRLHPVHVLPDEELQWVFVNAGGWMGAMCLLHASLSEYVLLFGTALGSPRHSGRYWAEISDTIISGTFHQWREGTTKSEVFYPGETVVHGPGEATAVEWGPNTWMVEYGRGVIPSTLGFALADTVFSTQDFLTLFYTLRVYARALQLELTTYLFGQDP

σ2 sites = target: T2, σ2 sites (Rattus norvegicus, UniProt Q5U3Y7); assay: σ2 receptor competition binding
T2 construct: Crude P2 membranes were prepared from guinea pig brain, rat brain, or rat liver; from tissue; host or cells: rat liver (crude P2 membranes)
T2 sequence (Q5U3Y7 1-176): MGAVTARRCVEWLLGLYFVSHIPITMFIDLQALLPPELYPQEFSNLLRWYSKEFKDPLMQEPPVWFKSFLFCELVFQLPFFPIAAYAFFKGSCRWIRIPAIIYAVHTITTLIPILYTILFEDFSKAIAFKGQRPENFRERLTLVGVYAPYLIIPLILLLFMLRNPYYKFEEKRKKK

rat red nucleus = assay: Acute dystonic reaction after microinjection into the rat red nucleus; format: in vivo; settings: alone and against sigma agonists such as DTG
Dopamine (D2) receptors = target: T3, Dopamine (D2) receptors (Rattus norvegicus, UniProt P61169); assay: Dopamine D2 receptor competition binding ([3H](−)sulpiride)
T3 construct: from tissue; host or cells: rat brain homogenate / P2 membranes
T3 sequence (P61169 whole entry): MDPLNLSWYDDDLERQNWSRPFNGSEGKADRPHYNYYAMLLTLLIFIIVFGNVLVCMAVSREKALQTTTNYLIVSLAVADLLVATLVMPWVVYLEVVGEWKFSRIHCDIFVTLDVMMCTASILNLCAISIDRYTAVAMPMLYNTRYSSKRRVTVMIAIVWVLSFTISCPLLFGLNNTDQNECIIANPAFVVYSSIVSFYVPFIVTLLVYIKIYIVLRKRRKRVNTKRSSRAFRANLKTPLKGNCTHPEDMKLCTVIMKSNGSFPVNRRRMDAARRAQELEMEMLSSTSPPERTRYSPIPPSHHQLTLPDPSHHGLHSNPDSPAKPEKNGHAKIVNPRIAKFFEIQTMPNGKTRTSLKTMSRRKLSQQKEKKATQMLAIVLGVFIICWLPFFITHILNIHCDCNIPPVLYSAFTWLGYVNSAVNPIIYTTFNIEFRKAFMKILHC

[2] = target: PCP sites on NMDA receptors (Rattus norvegicus, UniProt P35439); assay: PCP site competition binding ([3H]TCP)
5-HT2 receptors = 5-HT2 receptors (Rattus norvegicus, UniProt P14842); assay: 5-HT2 receptor competition binding ([3H]ketanserin)
5-HT2 receptors, sequence (P14842 whole entry): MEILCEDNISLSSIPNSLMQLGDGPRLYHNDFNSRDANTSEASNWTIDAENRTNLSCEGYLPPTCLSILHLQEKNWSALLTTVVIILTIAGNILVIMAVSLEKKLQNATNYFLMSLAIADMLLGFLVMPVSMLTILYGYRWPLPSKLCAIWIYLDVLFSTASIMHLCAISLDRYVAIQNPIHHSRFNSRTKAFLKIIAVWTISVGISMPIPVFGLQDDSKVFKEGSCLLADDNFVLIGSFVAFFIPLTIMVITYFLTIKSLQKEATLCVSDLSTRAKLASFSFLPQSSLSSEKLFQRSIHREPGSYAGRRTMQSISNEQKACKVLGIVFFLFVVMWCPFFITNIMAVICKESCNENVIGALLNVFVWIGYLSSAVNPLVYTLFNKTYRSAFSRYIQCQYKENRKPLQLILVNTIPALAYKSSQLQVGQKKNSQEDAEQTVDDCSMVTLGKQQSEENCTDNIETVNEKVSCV

Male, Swiss Webster mice [3] = assay: Effects of sigma ligands alone on baseline locomotor activity; format: in vivo; settings: 30 min; i.p. mg/kg: BD1008 1, BD1067 5, BD1047 30, LR172 5, BD1018 30, BD1063 30, LR132 30, LR176 10, YZ011 0.1, YZ027 1, YZ029 5
Male, Swiss Webster mice [4] = assay: Attenuation of cocaine-induced locomotor activity; format: in vivo; settings: same ligand doses as baseline test, 15 min before cocaine 10 mg/kg i.p.; 30 min; ANOVA
σ1 receptors [5] = assay: Antisense oligodeoxynucleotide (i.c.v.) against cocaine-induced convulsions; format: in vivo, mouse
σ1 receptors [6] = assay: Antisense oligodeoxynucleotide (i.c.v.), basal locomotor activity; format: in vivo, mouse; settings: i.c.v. antisense treatment, 30 min before the cocaine challenge
σ1 receptors [7] = assay: Antisense oligodeoxynucleotide (i.c.v.) against locomotor stimulatory effects of cocaine; format: in vivo, mouse
α1-adrenoceptors = assay: α1-adrenoceptor competition binding ([3H]prazosin); settings: rat brain homogenates
α2-adrenoceptors = assay: α2-adrenoceptor competition binding ([3H]clonidine); settings: rat brain homogenates
β-adrenoceptors = assay: β-adrenoceptor competition binding ([3H]dihydroalprenolol); settings: rat brain homogenates
5-HT1 receptors = assay: 5-HT1 receptor competition binding ([3H]5-HT); settings: rat brain homogenates
[8] = target: T4, muscarinic cholinergic receptors (Rattus norvegicus, UniProt P08482); assay: Muscarinic cholinergic receptor competition binding
T4 construct: from tissue; host or cells: rat brain homogenate / P2 membranes
T4 sequence (P08482 1-460): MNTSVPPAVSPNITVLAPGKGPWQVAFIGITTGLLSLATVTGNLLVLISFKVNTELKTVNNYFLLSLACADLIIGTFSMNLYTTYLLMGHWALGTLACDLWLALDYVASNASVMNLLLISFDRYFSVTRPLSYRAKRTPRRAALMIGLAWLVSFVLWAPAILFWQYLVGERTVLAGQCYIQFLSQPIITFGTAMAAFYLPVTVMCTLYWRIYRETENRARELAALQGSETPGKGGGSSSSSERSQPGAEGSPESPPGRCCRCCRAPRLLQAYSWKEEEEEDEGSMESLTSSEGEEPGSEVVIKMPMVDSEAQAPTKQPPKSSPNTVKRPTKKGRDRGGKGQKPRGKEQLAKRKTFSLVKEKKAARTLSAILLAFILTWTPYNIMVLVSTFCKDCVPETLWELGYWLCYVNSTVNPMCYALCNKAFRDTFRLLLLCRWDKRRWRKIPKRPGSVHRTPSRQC

[9] = Table 1, [3H](+)-pentazocine, guinea pig brain, mean±SEM, minimum of two independent assays, read-out: σ1
[10] = Table 1, [3H]DTG plus dextrallorphan, rat liver, mean±SEM, minimum of two independent assays
[11] = rat brain homogenates, [3H](−)sulpiride, read-out: Dopamine (D2)
[12] = rat brain homogenates, [3H]TCP, read-out: NMDA (PCP)
[13] = rat brain homogenates, [3H]ketanserin, read-out: 5-HT2
[14] = Table 4, second series, [3H](+)-pentazocine, guinea pig brain, read-out: σ1
[15] = Table 4, second series, [3H]DTG plus dextrallorphan, rat liver
[16] = NYU sequences, 10 μg/5 μl i.c.v. on Days 1, 2 and 4, cocaine 60 mg/kg i.p. on Day 5

Molecule | Ki (σ1 receptors [1]; [9]) | Ki (σ2 sites; [10]) | IC50 (Dopamine (D2) receptors; [11]) | IC50 [2, 12] | IC50 (5-HT2 receptors; [13]) | Ki (σ2 sites; [15]) | also measured
Fc1ccc(C(OCCN2CCN(CCCc3ccccc3)CC2)c2ccc(F)cc2)cc1 [GBR 12909, reference compound] | – | – | – | – | – | – | Ki (σ1 receptors [1]; Table 5, dopamine transporter ligands, read-out: σ1): 132 ± 31 nM; Ki (σ2 sites; Table 5, dopamine transporter ligands): 133 ± 37 nM
CC(C)=CCN1CCC2(C)c3cc(O)ccc3CC1C2C (single isomer, unassigned; (+)) [(+)-Pentazocine, reference compound] | – | – | – | – | – | – | agonist versus antagonist designation (dystonic head postures) (rat red nucleus): agonists
CN(CCc1cccc([N+](=O)[O-])c1)CCN1CCCC1 [YZ-027] | 6 ± 2 nM | 95 ± 0.7 nM | > 10000 nM | > 10000 nM | > 10000 nM | – | baseline horizontal locomotor activity versus saline (Male, Swiss Webster mice [3]): no significant difference; cocaine stimulated locomotor activity after pre-treatment (Male, Swiss Webster mice [4]): significant reduction in cocaine stimulated locomotor activity
CCCN(CCc1ccc(Cl)c(Cl)c1)CCN1CCCCC1 [BD1069] | – | 545 ± 139 nM | > 10000 nM | > 10000 nM | > 10000 nM | – | Ki (σ1 receptors [1]; read-out: σ1): 1 ± 0.2 nM; agonist versus antagonist designation (dystonic head postures) (rat red nucleus): variable, partial agonist actions
COc1ccc(CCN2CCN(CCCc3ccccc3)CC2)cc1 [YZ-067-2] | 1 ± 0.3 nM | 29 ± 2 nM | – | – | – | 29 ± 2 nM | Ki (σ1 receptors [1]; [14]): 1 ± 0.3 nM
NCCN1CCN(CCCc2ccccc2)CC1 [YZ-136-2] | 3 ± 0.09 nM | 188 ± 13 nM | – | – | – | 188 ± 13 nM | Ki (σ1 receptors [1]; [14]): 3 ± 0.09 nM
CN(CCc1ccc([N+](=O)[O-])cc1)CCN1CCCC1 [YZ-029] | 4 ± 0.9 nM | 63 ± 0.1 nM | > 10000 nM | > 10000 nM | > 10000 nM | – | baseline horizontal locomotor activity versus saline (Male, Swiss Webster mice [3]): no significant difference; cocaine stimulated locomotor activity after pre-treatment (Male, Swiss Webster mice [4]): significant reduction in cocaine stimulated locomotor activity
5′-CCCACGGCATCCCAGCGG-3′ (all phosphorothioate, sugars by position and methylation of C not given here) [McGill antisense, 18-mer phosphorothioate antisense oligodeoxynucleotide targeting the 5′-end of the σ1 receptor (Kitaichi et al., 1997)] | – | – | – | – | – | – | effect on cocaine-induced convulsions (σ1 receptors [5]; McGill, 10 nmol/5 μl i.c.v. every 12 hours, four times, cocaine 60 mg/kg i.p. 12 hours after last): significant attenuation of cocaine-induced convulsions; basal locomotor activity (σ1 receptors [6]): no effects on basal locomotor activity; effect on locomotor stimulatory effects of cocaine (σ1 receptors [7]; McGill, 10 nmol/5 μl i.c.v. every 12 hours, four times, cocaine 10 mg/kg i.p.): attenuates the locomotor stimulatory effects of cocaine
COc1ccccc1CC(=O)N(C)CCN1CCCC1 [YZ-008] | – | 3170 ± 144 nM | > 10000 nM | > 10000 nM | > 10000 nM | – | –
5′-GAGTGCCCAGCCACAACCAGG-3′ (all phosphorothioate, sugars by position and methylation of C not given here) [NYU antisense, 21-mer phosphorothioate antisense oligodeoxynucleotide against mouse σ1 receptors (King et al., 1997)] | – | – | – | – | – | – | effect on cocaine-induced convulsions (σ1 receptors [5]; [16]): protected against the convulsive effects of cocaine; basal locomotor activity (σ1 receptors [6]): no effects on basal locomotor activity; effect on locomotor stimulatory effects of cocaine (σ1 receptors [7]; NYU, 10 μg/5 μl i.c.v. on Days 1, 2 and 4, cocaine 10 mg/kg i.p. on Day 5): attenuates the locomotor stimulatory effects of cocaine
CN(CCc1ccccc1[N+](=O)[O-])CCN1CCCC1 [YZ-028] | 8 ± 0.9 nM | 311 ± 4 nM | > 10000 nM | > 10000 nM | > 10000 nM | – | –
C[C@@H]1CN(CCCn2c3ccccc3c3ccccc32)C[C@H](C)N1 [Rimcazole, reference compound] | – | 1160 ± 160 nM | – | – | – | – | –
COc1ccc(CC(=O)N(C)CCN2CCCC2)cc1 [YZ-007] | 2220 ± 61 nM | 1220 ± 95 nM | > 10000 nM | > 10000 nM | > 10000 nM | – | –
COc1ccccc1CCN1CCN(CCCc2ccccc2)CC1 [YZ-184-2] | – | 8 ± 0.2 nM | – | – | – | 8 ± 0.2 nM | –
CN(CCc1ccc(N)cc1)CCN1CCCC1 [YZ-030] | 276 ± 13 nM | 973 ± 77 nM | > 10000 nM | > 10000 nM | > 10000 nM | – | –
O=C(Cc1ccc([N+](=O)[O-])cc1)N1CCN(CCCc2ccccc2)CC1 [YZ-155-2] | 14 ± 1 nM | 167 ± 4 nM | – | – | – | 167 ± 4 nM | Ki (σ1 receptors [1]; [14]): 14 ± 1 nM
Nc1ccccc1CCN1CCN(CCCc2ccccc2)CC1 [YZ-165-2-2] | 5 ± 0.1 nM | 18 ± 0.2 nM | – | – | – | 18 ± 0.2 nM | Ki (σ1 receptors [1]; [14]): 5 ± 0.1 nM
COc1ccc(CC(=O)N2CCN(CCCc3ccccc3)CC2)cc1 [YZ-051-2] | 13 ± 2 nM | 464 ± 34 nM | – | – | – | 464 ± 34 nM | Ki (σ1 receptors [1]; [14]): 13 ± 2 nM
Clc1ccc(CCN2CCN(CCCc3ccccc3)CC2)cc1Cl [YZ-069-2] | 2 ± 0.2 nM | 39 ± 2 nM | – | – | – | 39 ± 2 nM | Ki (σ1 receptors [1]; [14]): 2 ± 0.2 nM
CN(C)CCN(C)CCc1ccc(Cl)c(Cl)c1 [BD1047] | – | – | – | – | – | – | Ki (σ1 receptors [1]): 0.9 ± 0.14 nM; IC50 (Dopamine (D2) receptors): > 10000 nM; IC50 [2]: > 10000 nM; IC50 (5-HT2 receptors): 4670 ± 2630 nM; IC50 (α1-adrenoceptors): > 10000 nM; IC50 (α2-adrenoceptors): > 10000 nM; IC50 (β-adrenoceptors): 145 ± 100 nM; IC50 (5-HT1 receptors): > 10000 nM; IC50 [8]: 8000 ± 1000 nM; agonist versus antagonist designation (dystonic head postures) (rat red nucleus): functional antagonists; baseline horizontal locomotor activity versus saline (Male, Swiss Webster mice [3]): no significant difference; cocaine stimulated locomotor activity after pre-treatment (Male, Swiss Webster mice [4]): significant reduction in cocaine stimulated locomotor activity
5′-GAGGTCCCGACCACACACAGG-3′ (all phosphorothioate, sugars by position and methylation of C not given here) [mismatch] | – | – | – | – | – | – | effect on cocaine-induced convulsions (σ1 receptors [5]; [16]): responses no different from the saline-treated animals
COc1cccc(CCN2CCN(C(=O)Cc3cccc(OC)c3)CC2)c1 [YZ-085-2] | – | 12 ± 2 nM | – | – | – | 12 ± 2 nM | –
CN1CCN(CCc2ccc(Cl)c(Cl)c2)CC1 [BD1063] | – | – | > 10000 nM | > 10000 nM | 2550 ± 2420 nM | – | Ki (σ1 receptors [1]): 9 ± 1 nM; IC50 (α1-adrenoceptors): > 10000 nM; IC50 (α2-adrenoceptors): > 10000 nM; IC50 (β-adrenoceptors): > 10000 nM; IC50 (5-HT1 receptors): > 10000 nM; IC50 ([8]; rat brain homogenates, [3H]pirenzepine, read-out: mACh): 9460 ± 750 nM; agonist versus antagonist designation (dystonic head postures) (rat red nucleus): functional antagonists; baseline horizontal locomotor activity versus saline (Male, Swiss Webster mice [3]): no significant difference; cocaine stimulated locomotor activity after pre-treatment (Male, Swiss Webster mice [4]): significant reduction in cocaine stimulated locomotor activity
COc1ccccc1CC(=O)N1CCN(CCCc2ccccc2)CC1 [YZ-048-2] | 56 ± 8 nM | 294 ± 10 nM | – | – | – | 294 ± 10 nM | Ki (σ1 receptors [1]; [14]): 56 ± 8 nM
COc1cccc(CC(=O)N(C)CCN2CCCC2)c1 [YZ-005] | 3101 ± 20 nM | 1110 ± 55 nM | > 10000 nM | > 10000 nM | > 10000 nM | – | –
OC(CCCN1CCN(c2ncc(F)cn2)CC1)c1ccc(F)cc1 (centres unmarked) [BMY14802, reference compound] | – | 51 ± 8 nM | – | – | – | – | –
CN(CCc1ccccc1N)CCN1CCCC1 [YZ-032] | 291 ± 38 nM | 640 ± 25 nM | > 10000 nM | > 10000 nM | > 10000 nM | – | –
CN(CCc1cccc(N)c1)CCN1CCCC1 [YZ-033] | 579 ± 35 nM | 2240 ± 260 nM | > 10000 nM | > 10000 nM | > 10000 nM | – | –
